Reference: patent US20220304945A1, “METHODS OF TREATING METABOLIC SYNDROME RELATED CONDITIONS USING RETINOIC ACID RECEPTOR AGONISTS” (Cornell University, priority 2014, published 2022)
“Also recorded” adds a separate entry of the source.

Key:
Format in all cases: in vivo, mouse
[1] = tested on: 4-HNE, oxidative stress in the liver; test: 4-HNE staining of liver, HF-fed mice; details: HF diet mice; vs high fat diet group
Text: Mice, diet, and drug treatment. WT male C57/BL6 male mice were maintained on either a standard laboratory chow-fed diet (CFD) with 13% kcal fat, (diet #5053, Lab Diet, Inc, St. Louis, Mo.) or a high fat, western style diet (HFD) with 60% kcals from fat, (diet #58126, Lab Diet, Inc., St. Louis, Mo.) for 4 months. One month after the start of the high fat diet treatment, the high fat diet group was further split into 2 groups for 3 months: i) high fat diet and the drinking water containing 1% DMSO; ii) high fat diet and the drinking water containing 1.5 mg/100 ml AC261066, a specific RARβ agonist. Then mice were sacrificed by cervical dislocation. Blood and various tissue samples were harvested.
4-hydroxynonenal (4-HNE) staining. Paraffin-embedded sections (from two to four mice per group) were deparaffinized and rehydrated, and antigen retrieval was performed using an antigen unmasking solution (Vector Laboratories, H-3300). After quenching endogenous peroxidase with 3% H2O2, the tissue sections were blocked with the blocking reagent (from the M.O.M. kit from Vector Laboratories). Then, tissue sections were incubated with a 4-HNE antibody (1:400; mouse monoclonal antibody; Abcam, ab48506) overnight at 4° C. The sections were then incubated with secondary antibodies (1:200, anti-mouse IgG from the M.O.M kit). […]

[2] = tested on: SREBP1, FASN, PPAR-α, CPT1-α, MCP-1, TNF-α, α-SMA mRNA; test: PCR of kidney genes of lipid metabolism, inflammation and fibrosis in HFD, Ob/Ob and Db/Db mice (Example 23)
Protocol: Quantitative RT-PCR (Q-PCR)-Q-PCR was performed using SYBR Green PCR master mix on a Bio-Rad MyiQ2 Real Time PCR iCycler (Bio-Rad, Inc. Hercules, Calif.). Gene specific primers (Table 5) were used to amplify mRNA target genes, which were normalized to Hprt internal control genes. cDNA from 3-5 mice per experimental group was analyzed for relative mRNA fold changes, calculated using the Pfaffl method (Pfaffl M W, A new mathematical model for relative quantification in real-time RT-PCR, Nucleic Acids Res. 2001 May 1; 29(9):e45). Relative gene expression values are reported as mean±standard error of the mean (S.E.M) and P-values calculated using one-way analysis of variance followed by Bonferroni multiple comparison test post-hoc analysis.
Diabetic kidney disease (aka diabetic nephropathy (DN)) frequently occurs in individuals with type 2 diabetes. The causes of DN are unclear but insulin resistance, hyperlipidemia and obesity are implicated because these states can impair renal lipid metabolism leading to the accumulation of free fatty acids (FFA), which can promote renal inflammation, fibrosis and impaired kidney function. There is evidence that transcriptions factors involved in de novo lipid synthesis such as srebpl contribute to the pathogenesis of DN. […] HF-fed mice treated with AC261066 had no increase in mRNA transcripts of SREBP1 and FASN (FIG. 33A).
We also measured kidney mRNA levels of pro-inflammatory and fibrogenic mediators MCP-1 (aka CCL2), TNF-α, and α-SMA in HFD-fed mice and two genetic mouse models of obesity and diabetes, Ob/Ob and Db/Db mice. MCP-1, TNF-α, and α-SMA are implicated in inflammation and fibrosis in DN and expression of these genes are frequently elevated in models of DN. […] Kidney mRNA transcripts of α-SMA, which contributes to DN fibrosis, was increased 5-6 fold in HFD Ob/Ob and Db/Db mice compared to wt con (FIG. 33D). HFD Ob/Ob and Db/Db mice treated AC261066 had 40-50% reductions in a-SMA transcripts compared to their respective HFD and genetic controls (FIG. 33D).

HFD-fed C57/BL6 mice = test: Acute administration (8 days) to HFD-fed mice: body weight, intake, random glucose, GTT, ITT
Protocol: FIG. 31. Acute administration of Retinoic Acid Receptor β (RARβ) agonist AC261066 reverses high fat induced glucose intolerance and insulin resistance. A-C) Body weights, water and food intake of wild type C57/B16 male mice after 3 months of being fed either: a standard chow (13% Kcal/fat) diet (Wt Con, n=4), a high fat (45% Kcal/fat) diet (HFD, n=4) or 3 months of a HFD mice plus 8 days of administration of the RARβ agonist AC261066 (n=4) in their drinking water at a dose of 5.4 mg/Kg BW/day. On day 8 mice were tested for glucose intolerance and insulin resistance. D and E) Random glucose and glucose tolerance test (GTT) of mice described in A. F) Insulin tolerance test of mice described in A.
Metabolic Measurements-Glucose tolerance was performed using an intraperitoneal glucose tolerance test (GTT) as previously described (Trasino et al., Vitamin A Deficiency Causes Hyperglycemia and Loss of Pancreatic β-Cell Mass, J Biol Chem. 2014 Dec. 1. pii: jbc.M114.616763). […] Tail vein blood glucose was measured at 20, 40, 60 and 120 minutes after injection using a FreeStyle Lite Blood Glucose Monitoring System (Abbott Diabetes Care, Inc. Alameda, Calif.). To determine insulin secretion responses to glucose, serum fractions were isolated between 0-60 minutes post glucose injections and insulin concentrations were measured using an Ultrasensitive Insulin ELISA Kit (Alpco, Inc. Salem, N.H.). […]

[3] = HFD, Ob/Ob and Db/Db mice vs respective untreated

`CCCCOCCOc1nc(-c2ccc(C(=O)O)c(F)c2)sc1C` [AC261066] was tested, and the “4-HNE level (oxidative stress, ROS) in liver” value [1] was “reduces oxidative stress; also recorded: lower”, the “kidney mRNA transcripts of PPAR-α and CPT1-α, increase vs HFD-fed mice” value ([2]; HF-fed mice) was “approximately 2 fold” and the “kidney mRNA transcripts of SREBP1 and FASN” value ([2]; HF-fed mice) was “no increase”. For the same compound, the “reduction in kidney α-SMA transcripts” value ([2]; HFD, Ob/Ob and Db/Db mice vs respective controls) was 40-50%, the “reduction in kidney mRNA transcripts of MCP-1” value [2, 3] was 40-50% and the “reduction in kidney mRNA transcripts of TNF-α” value [2, 3] was 40-50%. For the same compound, the random glucose levels (HFD-fed C57/BL6 mice; after 24 hours of administration) was “significant reductions” and the “hyperglycemia (glucose intolerance) and insulin resistance” value (HFD-fed C57/BL6 mice; after 8 days of administration) was “reverses; also recorded: significant reductions”.
